The record followed here is patent US10253002B2, “Compounds and methods of treating infections” (Neoculi Pty Ltd., priority 2013, dated 2019).

One test relates to VRE. Description: Broth microdilution MIC, Example 7 (NCL812 and analogues). In kind it is cell-based, Enterococcus spp. The following applies: VRE 1, 24 hours. Put shortly:
(§1)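 Values are MICs in μg/ml from broth microdilution per CLSI, with growth scored against a drug-free well.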
A general note: Broth dilution looks for growth in wells or tubes with falling amounts of substance.
On to `Nc1nc(N/N=C/c2ccc(F)c(F)c2)cc(N/N=C/c2ccc(F)c(F)c2)n1` [NCL222], for which the “MIC (μg/ml) at 24 hours, VRE 1” value is more than 128 µg/mL.

With `CC(=O)Nc1ccc(/C=N/Nc2cc(N/N=C/c3ccc(NC(C)=O)cc3)nc(N)n2)cc1` [NCL223], the “MIC (μg/ml) at 24 hours, VRE 1” value was more than 128 µg/mL.

`CCOC(=O)N(/N=C/c1ccc(Cl)cc1)C(N)=N/N=C/c1ccc(Cl)cc1` [NCL224]: the “MIC (μg/ml) at 24 hours, VRE 1” value is more than 128 µg/mL.

For `CC(C)COC(=O)N(N=Cc1ccc(Cl)cc1)C(N)=NN=Cc1ccc(Cl)cc1` [NCL225], the “MIC (μg/ml) at 24 hours, VRE 1” value is more than 128 µg/mL.

Regarding `CCNC(=O)N(/N=C/c1ccc(Cl)cc1)C(N)=N/N=C/c1ccc(Cl)cc1` [NCL226], the “MIC (μg/ml) at 24 hours, VRE 1” value was more than 128 µg/mL.

As for `N=C(N/N=C/c1ccc(Cl)cc1)N(/N=C/c1ccc(Cl)cc1)C(=O)NCc1ccccc1` [NCL227], the “MIC (μg/ml) at 24 hours, VRE 1” value is more than 128 µg/mL.

On to `CCCCCCNC(=O)N(N=Cc1ccc(Cl)cc1)C(N)=NN=Cc1ccc(Cl)cc1` [NCL228], for which the “MIC (μg/ml) at 24 hours, VRE 1” value is more than 128 µg/mL.

Regarding `NC(=N/N=C/c1ccc(Cl)cc1)N(/N=C/c1ccc(Cl)cc1)C(=O)NCc1ccco1` [NCL229], the “MIC (μg/ml) at 24 hours, VRE 1” value was more than 128 µg/mL.

The same test, now with this note: VRE 2, 24 hours.
Take `Nc1nc(N/N=C/c2ccc(F)c(F)c2)cc(N/N=C/c2ccc(F)c(F)c2)n1` [NCL222]: the “MIC (μg/ml) at 24 hours, VRE 2” value is more than 128 µg/mL.

In the case of `CC(=O)Nc1ccc(/C=N/Nc2cc(N/N=C/c3ccc(NC(C)=O)cc3)nc(N)n2)cc1` [NCL223], the “MIC (μg/ml) at 24 hours, VRE 2” value was more than 128 µg/mL.

As to `CCOC(=O)N(/N=C/c1ccc(Cl)cc1)C(N)=N/N=C/c1ccc(Cl)cc1` [NCL224], the “MIC (μg/ml) at 24 hours, VRE 2” value is more than 128 µg/mL.

As to `CC(C)COC(=O)N(N=Cc1ccc(Cl)cc1)C(N)=NN=Cc1ccc(Cl)cc1` [NCL225], the “MIC (μg/ml) at 24 hours, VRE 2” value is more than 128 µg/mL.

On to `CCNC(=O)N(/N=C/c1ccc(Cl)cc1)C(N)=N/N=C/c1ccc(Cl)cc1` [NCL226], for which the “MIC (μg/ml) at 24 hours, VRE 2” value is more than 128 µg/mL.

Regarding `N=C(N/N=C/c1ccc(Cl)cc1)N(/N=C/c1ccc(Cl)cc1)C(=O)NCc1ccccc1` [NCL227], the “MIC (μg/ml) at 24 hours, VRE 2” value was more than 128 µg/mL.

Consider `CCCCCCNC(=O)N(N=Cc1ccc(Cl)cc1)C(N)=NN=Cc1ccc(Cl)cc1` [NCL228], for which the “MIC (μg/ml) at 24 hours, VRE 2” value was more than 128 µg/mL.

Take `NC(=N/N=C/c1ccc(Cl)cc1)N(/N=C/c1ccc(Cl)cc1)C(=O)NCc1ccco1` [NCL229]: the “MIC (μg/ml) at 24 hours, VRE 2” value is more than 128 µg/mL.

Another test has as its system Escherichia coli. Described as above. As to conditions: E. coli, 24 hours. In kind it is cell-based.
In the case of `Nc1nc(N/N=C/c2ccc(F)c(F)c2)cc(N/N=C/c2ccc(F)c(F)c2)n1` [NCL222], the “MIC (μg/ml) at 24 hours, E. coli” value was more than 128 µg/mL.

As to `CC(=O)Nc1ccc(/C=N/Nc2cc(N/N=C/c3ccc(NC(C)=O)cc3)nc(N)n2)cc1` [NCL223], the “MIC (μg/ml) at 24 hours, E. coli” value is more than 128 µg/mL.

Regarding `CCOC(=O)N(/N=C/c1ccc(Cl)cc1)C(N)=N/N=C/c1ccc(Cl)cc1` [NCL224], the “MIC (μg/ml) at 24 hours, E. coli” value is more than 128 µg/mL.

`CC(C)COC(=O)N(N=Cc1ccc(Cl)cc1)C(N)=NN=Cc1ccc(Cl)cc1` [NCL225]: the “MIC (μg/ml) at 24 hours, E. coli” value is more than 128 µg/mL.

Take `CCNC(=O)N(/N=C/c1ccc(Cl)cc1)C(N)=N/N=C/c1ccc(Cl)cc1` [NCL226]: the “MIC (μg/ml) at 24 hours, E. coli” value was more than 128 µg/mL.

`N=C(N/N=C/c1ccc(Cl)cc1)N(/N=C/c1ccc(Cl)cc1)C(=O)NCc1ccccc1` [NCL227]: the “MIC (μg/ml) at 24 hours, E. coli” value was more than 128 µg/mL.

`CCCCCCNC(=O)N(N=Cc1ccc(Cl)cc1)C(N)=NN=Cc1ccc(Cl)cc1` [NCL228]: the “MIC (μg/ml) at 24 hours, E. coli” value is more than 128 µg/mL.

For `NC(=N/N=C/c1ccc(Cl)cc1)N(/N=C/c1ccc(Cl)cc1)C(=O)NCc1ccco1` [NCL229], the “MIC (μg/ml) at 24 hours, E. coli” value is more than 128 µg/mL.

A further test deals with MRSA. The test is described as above. The following applies: MRSA 1, 24 hours. In kind it is cell-based, Staphylococcus aureus. A digest of the protocol:
as §1
As to `Nc1nc(N/N=C/c2ccc(F)c(F)c2)cc(N/N=C/c2ccc(F)c(F)c2)n1` [NCL222], the “MIC (μg/ml) at 24 hours, MRSA 1” value is more than 128 µg/mL.

Take `CC(=O)Nc1ccc(/C=N/Nc2cc(N/N=C/c3ccc(NC(C)=O)cc3)nc(N)n2)cc1` [NCL223]: the “MIC (μg/ml) at 24 hours, MRSA 1” value was more than 128 µg/mL.

With `CCOC(=O)N(/N=C/c1ccc(Cl)cc1)C(N)=N/N=C/c1ccc(Cl)cc1` [NCL224], the “MIC (μg/ml) at 24 hours, MRSA 1” value is more than 128 µg/mL.

For `CC(C)COC(=O)N(N=Cc1ccc(Cl)cc1)C(N)=NN=Cc1ccc(Cl)cc1` [NCL225], the “MIC (μg/ml) at 24 hours, MRSA 1” value was more than 128 µg/mL.

Turning to `CCNC(=O)N(/N=C/c1ccc(Cl)cc1)C(N)=N/N=C/c1ccc(Cl)cc1` [NCL226], the “MIC (μg/ml) at 24 hours, MRSA 1” value is more than 128 µg/mL.

In the case of `N=C(N/N=C/c1ccc(Cl)cc1)N(/N=C/c1ccc(Cl)cc1)C(=O)NCc1ccccc1` [NCL227], the “MIC (μg/ml) at 24 hours, MRSA 1” value was more than 128 µg/mL.

On to `CCCCCCNC(=O)N(N=Cc1ccc(Cl)cc1)C(N)=NN=Cc1ccc(Cl)cc1` [NCL228], for which the “MIC (μg/ml) at 24 hours, MRSA 1” value was more than 128 µg/mL.

Turning to `NC(=N/N=C/c1ccc(Cl)cc1)N(/N=C/c1ccc(Cl)cc1)C(=O)NCc1ccco1` [NCL229], the “MIC (μg/ml) at 24 hours, MRSA 1” value was more than 128 µg/mL.

The same test, now with this note: MRSA 2, 24 hours.
With `Nc1nc(N/N=C/c2ccc(F)c(F)c2)cc(N/N=C/c2ccc(F)c(F)c2)n1` [NCL222], the “MIC (μg/ml) at 24 hours, MRSA 2” value is more than 128 µg/mL.

As to `CC(=O)Nc1ccc(/C=N/Nc2cc(N/N=C/c3ccc(NC(C)=O)cc3)nc(N)n2)cc1` [NCL223], the “MIC (μg/ml) at 24 hours, MRSA 2” value is more than 128 µg/mL.

Consider `CCOC(=O)N(/N=C/c1ccc(Cl)cc1)C(N)=N/N=C/c1ccc(Cl)cc1` [NCL224], for which the “MIC (μg/ml) at 24 hours, MRSA 2” value is more than 128 µg/mL.

As to `CC(C)COC(=O)N(N=Cc1ccc(Cl)cc1)C(N)=NN=Cc1ccc(Cl)cc1` [NCL225], the “MIC (μg/ml) at 24 hours, MRSA 2” value was more than 128 µg/mL.

`CCNC(=O)N(/N=C/c1ccc(Cl)cc1)C(N)=N/N=C/c1ccc(Cl)cc1` [NCL226]: the “MIC (μg/ml) at 24 hours, MRSA 2” value was more than 128 µg/mL.

With `N=C(N/N=C/c1ccc(Cl)cc1)N(/N=C/c1ccc(Cl)cc1)C(=O)NCc1ccccc1` [NCL227], the “MIC (μg/ml) at 24 hours, MRSA 2” value was more than 128 µg/mL.

With `CCCCCCNC(=O)N(N=Cc1ccc(Cl)cc1)C(N)=NN=Cc1ccc(Cl)cc1` [NCL228], the “MIC (μg/ml) at 24 hours, MRSA 2” value is more than 128 µg/mL.

With `NC(=N/N=C/c1ccc(Cl)cc1)N(/N=C/c1ccc(Cl)cc1)C(=O)NCc1ccco1` [NCL229], the “MIC (μg/ml) at 24 hours, MRSA 2” value is more than 128 µg/mL.

For another test, the system named is Pseudomonas aeruginosa. Described as above. In kind it is cell-based. As to conditions: P. aeruginosa, 24 hours.
For the compound `Nc1nc(N/N=C/c2ccc(F)c(F)c2)cc(N/N=C/c2ccc(F)c(F)c2)n1` [NCL222], the “MIC (μg/ml) at 24 hours, P. aeruginosa” value was more than 128 µg/mL.

Take `CC(=O)Nc1ccc(/C=N/Nc2cc(N/N=C/c3ccc(NC(C)=O)cc3)nc(N)n2)cc1` [NCL223]: the “MIC (μg/ml) at 24 hours, P. aeruginosa” value is more than 128 µg/mL.

In the case of `CCOC(=O)N(/N=C/c1ccc(Cl)cc1)C(N)=N/N=C/c1ccc(Cl)cc1` [NCL224], the “MIC (μg/ml) at 24 hours, P. aeruginosa” value was more than 128 µg/mL.

In the case of `CC(C)COC(=O)N(N=Cc1ccc(Cl)cc1)C(N)=NN=Cc1ccc(Cl)cc1` [NCL225], the “MIC (μg/ml) at 24 hours, P. aeruginosa” value is more than 128 µg/mL.

On to `CCNC(=O)N(/N=C/c1ccc(Cl)cc1)C(N)=N/N=C/c1ccc(Cl)cc1` [NCL226], for which the “MIC (μg/ml) at 24 hours, P. aeruginosa” value is more than 128 µg/mL.

Take `N=C(N/N=C/c1ccc(Cl)cc1)N(/N=C/c1ccc(Cl)cc1)C(=O)NCc1ccccc1` [NCL227]: the “MIC (μg/ml) at 24 hours, P. aeruginosa” value was more than 128 µg/mL.

For `CCCCCCNC(=O)N(N=Cc1ccc(Cl)cc1)C(N)=NN=Cc1ccc(Cl)cc1` [NCL228], the “MIC (μg/ml) at 24 hours, P. aeruginosa” value was more than 128 µg/mL.

For the compound `NC(=N/N=C/c1ccc(Cl)cc1)N(/N=C/c1ccc(Cl)cc1)C(=O)NCc1ccco1` [NCL229], the “MIC (μg/ml) at 24 hours, P. aeruginosa” value is more than 128 µg/mL.
